Measured values published in patent US6391904B1, “Iminoguanidine derivatives, preparation method, use as medicines” (Aventis Pharma S.A., priority 1998, dated 2002).

Biological target: human αvβ3 receptor (Homo sapiens, UniProt P05106+P06756)
Assay: Kistrin/Vitronectin Receptor (αvβ3) ELISA test
Format: binding
Settings: Kistrin-coated plates, 3 hours at ambient temperature, 4B12-HRP detection, read-out: K/VnR IC50
Protocol: Pharmacological Test: Kistrin/Vitronectin Receptor (αvβ3) ELISA Test Protocol:
96-well MaxiSorp plates are coated overnight at […] with 100 μl of Kistrin at 1 μg/ml (dilution in coating buffer: 0.05M carbonate)/NaOH pH 9.6. The next day, the wells are emptied and the ligands (kistrin) are then fixed (fixation buffers: PBS containing 0.5% BSA (pH=7.4)) for 1 hour at ambient temperature under gentle agitation of 125 rpm. The wells are washed six times (washing buffer: PBS containing 0.05% Tween 20 (pH 7.7) then the following is added per well and in this order:
40 μl of incubation buffer
10 μl of the dilution of the product to be tested (the products are diluted in a 50:50 DMSO/water mixture)
50 μl of human αvβ3 receptor (cf Pytel et al. Methods Enzymol. (1987) 144 (Dilution in incubation buffer, adapted according to the batch of receptor and according to the ligand). The ligand, the αvβ3 receptor and the products to be studied are incubated for 3 hours at ambient temperature with gentle agitation of 125 rpm.
The wells are again washed six times, then incubated for 2 hours at ambient temperature with mild agitation of 125 rpm, in the presence of 100 μl of anti-receptor antibody coupled to a peroxidase (The 4B12-HRP antibody is diluted in incubation buffer (50 mM TRIS pH 7.4; 0.5% BSA; 0.05% Tween 20; 1 mM MnCl2; 50 μM CaCl2; 50 μM MgCl2; 100 mM NaCl). The dilution is to be adapted according to the batch of receptor.
The wells are then washed six times before measurement of the ligand-receptor bond is carried out using a peroxidase developer kit (TBM Microwell Peroxidase Substrate System Kirkegaard; Ref cat 50-76-00).
This kit contains a flask A of substrate (3,3′,5,5′-tetramethylebenzidine at 0.4 g/l) and a flask B (H2O2 to 0.02% in Citrate/Citric acid). Extemporaneously, one volume of A is mixed with one volume of B, then the reaction mixture is distributed at a rate of 100 μl/wells.
The enzymatic reaction develops between 6 to 10 minutes for Kistrin/αvβ3 then its development is stopped by the addition of 100 μl of 1M phosphoric acid. The optical density is determined at 450 nm.
Expression of the Results
The following curve is plotted: the bond percentage as a function of the logarithm of each concentration of the tested product.
For each product IC50 is determined according to the following formula: IC50=(B0+Bmin)/2 B0=Maximum bond in the absence of any product Bmin=Minimum bond in the presence of the highest concentration of the product.

Sequence of human αvβ3 receptor (P06756 31-889 limits assumed): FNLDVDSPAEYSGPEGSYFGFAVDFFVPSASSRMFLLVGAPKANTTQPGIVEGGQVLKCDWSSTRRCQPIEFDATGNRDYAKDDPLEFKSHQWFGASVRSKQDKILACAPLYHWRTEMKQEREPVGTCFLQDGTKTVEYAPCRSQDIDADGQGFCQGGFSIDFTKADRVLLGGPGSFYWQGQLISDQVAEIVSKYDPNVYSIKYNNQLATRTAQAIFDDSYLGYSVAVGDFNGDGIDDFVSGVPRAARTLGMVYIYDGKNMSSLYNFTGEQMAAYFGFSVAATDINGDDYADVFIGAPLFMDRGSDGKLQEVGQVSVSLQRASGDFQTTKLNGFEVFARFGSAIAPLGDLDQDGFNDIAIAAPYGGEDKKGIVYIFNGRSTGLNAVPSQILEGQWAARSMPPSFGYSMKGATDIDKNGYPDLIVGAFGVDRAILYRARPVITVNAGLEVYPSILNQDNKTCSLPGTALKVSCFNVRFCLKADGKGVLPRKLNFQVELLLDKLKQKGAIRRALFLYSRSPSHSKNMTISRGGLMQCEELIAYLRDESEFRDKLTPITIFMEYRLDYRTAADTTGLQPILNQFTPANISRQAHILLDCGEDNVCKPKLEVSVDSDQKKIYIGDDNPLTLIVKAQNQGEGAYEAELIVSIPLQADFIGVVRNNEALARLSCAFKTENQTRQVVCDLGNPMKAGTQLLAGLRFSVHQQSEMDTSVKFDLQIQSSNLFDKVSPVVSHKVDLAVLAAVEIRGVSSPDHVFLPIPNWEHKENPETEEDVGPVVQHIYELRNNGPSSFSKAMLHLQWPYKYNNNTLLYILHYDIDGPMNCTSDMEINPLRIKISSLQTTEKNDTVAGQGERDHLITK
Sequence of human αvβ3 receptor (P06756 891-1048 limits assumed): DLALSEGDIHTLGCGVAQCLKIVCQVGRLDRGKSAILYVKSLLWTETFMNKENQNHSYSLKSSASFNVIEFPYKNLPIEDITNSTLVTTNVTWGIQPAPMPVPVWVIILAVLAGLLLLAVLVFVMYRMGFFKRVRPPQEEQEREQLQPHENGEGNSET
Sequence of human αvβ3 receptor (P05106 27-788): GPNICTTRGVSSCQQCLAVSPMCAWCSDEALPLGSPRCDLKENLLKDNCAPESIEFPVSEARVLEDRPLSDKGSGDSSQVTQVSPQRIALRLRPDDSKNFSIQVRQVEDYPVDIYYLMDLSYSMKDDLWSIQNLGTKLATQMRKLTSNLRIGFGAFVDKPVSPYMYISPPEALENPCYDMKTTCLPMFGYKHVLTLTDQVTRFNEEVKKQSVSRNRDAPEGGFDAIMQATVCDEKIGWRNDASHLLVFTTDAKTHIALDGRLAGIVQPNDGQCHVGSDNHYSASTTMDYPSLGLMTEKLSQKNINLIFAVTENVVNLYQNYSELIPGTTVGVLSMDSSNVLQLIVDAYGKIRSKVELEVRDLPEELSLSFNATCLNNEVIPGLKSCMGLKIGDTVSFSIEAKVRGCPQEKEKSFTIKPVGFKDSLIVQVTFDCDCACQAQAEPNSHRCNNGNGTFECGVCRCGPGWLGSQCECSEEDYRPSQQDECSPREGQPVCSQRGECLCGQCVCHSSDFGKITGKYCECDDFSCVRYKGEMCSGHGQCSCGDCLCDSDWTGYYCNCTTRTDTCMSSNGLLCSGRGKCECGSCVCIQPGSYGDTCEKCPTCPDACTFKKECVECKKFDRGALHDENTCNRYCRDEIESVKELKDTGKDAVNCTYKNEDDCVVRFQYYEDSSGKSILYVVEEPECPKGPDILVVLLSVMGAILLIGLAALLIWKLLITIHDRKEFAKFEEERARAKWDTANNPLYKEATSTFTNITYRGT

Structure (SMILES)	IC50 [nM]
CC(CCc1ccc(OCCC(NC(=O)OCc2ccccc2)C(=O)O)cc1)=NNC1=NCCN1 (mixture of isomers) [ex 1, O-[4-[3-[(4,5-Dihydro-1H-imidazol-2-yl)hydrazono]butyl]-phenyl]-N-[(phenylmethoxy)carbonyl]-homoserine.]	150
CC(Cc1ccc(OCCC(NC(=O)OCc2ccccc2)C(=O)O)cc1)=NNC1=NCCN1 (mixture of isomers) [ex 5]	22
N=C(N)NN=CCCc1ccc(OCCC(NC(=O)OCc2ccccc2)C(=O)O)cc1 (mixture of isomers) [ex 4, O-[4-[3-[(Aminoiminomethyl)hydrazono]propyl]phenyl]-N-[(phenylmethoxy)carbonyl]-homoserine]	450
CC(CCc1ccc(OCCC(NC(=O)OCc2ccccc2)C(=O)O)cc1)=NNC(=N)N (mixture of isomers) [ex 2, O-[4-[3-[(Aminoiminomethyl)hydrazono]butyl]phenyl]-N-[(phenylmethoxy)carbonyl]-homoserine]	1350
O=C(NC(CCOc1ccc(CC/C=N\NC2=NCCN2)cc1)C(=O)O)OCc1ccccc1 (racemic) [ex 3, O-[4-[3-[(4,5-Dihydro-1H-imidazol-2-yl)hydrazono]propyl]-phenyl]-N-[(phenylmethoxy)carbonyl]-homoserine]	110

Further lines, results first:

IC50 [nM]	Structure (SMILES)
22	C/C(Cc1ccc(OCCC(NC(=O)OCc2ccccc2)C(=O)O)c(F)c1)=N\NC1=NCCN1 (racemic) [ex 7, O-[4-[2-[(4,5-Dihydro-1H-imidazol-2-yl)hydrazono]propyl]-2-fluorophenyl]-N-[(phenylmethoxy)carbonyl]-homoserine]
960	O=C(NC(CCOc1cccc(CC/C=N/NC2=NCCN2)c1)C(=O)O)OCc1ccccc1 (stereo not drawn) [ex 12, O-[3-[3-[(4,5-Dihydro-1H-imidazol-2-yl) hydrazono]propyl]-phenyl]-N-[(phenylmethoxy)carbonyl]-homoserine]
2000	CC(CCc1cccc(OCCC(NC(=O)OCc2ccccc2)C(=O)O)c1)=NNC1=NCCN1 (mixture of isomers) [ex 9, O-[3-[3-[(4,5-Dihydro-1H-imidazol-2-yl)hydrazono]butyl]-phenyl]-N-[(phenylmethoxy)carbonyl]-homoserine]
12	COc1cc(C/C(C)=N/NC2=NCCN2)ccc1OCCC(NC(=O)OCc1ccccc1)C(=O)O (racemic) [ex 6, O-[4-[2-[(4,5-Dihydro-1H-imidazol-2-yl)hydrazono]propyl]-2-methoxyphenyl]-N-[(phenylmethoxy)carbonyl]-homoserine]
292	O=C(NC(CCOc1ccc(/C=N/NC2=NCCN2)cc1)C(=O)O)OCc1ccccc1 (stereo not drawn) [ex 13]
3250	N=C(N)NN=CCCc1cccc(OCCC(NC(=O)OCc2ccccc2)C(=O)O)c1 (mixture of isomers) [ex 11, O-[3-[3-[(Aminoiminomethyl)hydrazono]propyl]phenyl]-N-[(phenylmethoxy)carbonyl]-homoserine]
355	CC(Cc1cccc(OCCC(NC(=O)OCc2ccccc2)C(=O)O)c1)=NNC1=NCCN1 (mixture of isomers) [ex 10, O-[3-[2-[(4,5-Dihydro-1H-imidazol-2-yl) hydrazono]propyl]-phenyl]-N-[(phenylmethoxy)carbonyl]-homoserine]
